Test results: patent US12358867B1, “Peptoid-based inhibitors of the protein arginine methyltransferase (PRMT) family” (University of North Florida Board of Trustees, priority 2020, dated 2025)
Where two headings read alike, the source gives them in different places. Starred links: 1 amine or outer side, 2 acyl side, 3 side chain; linkers in the order of their positions; H or OH if unused. Non-standard residues stand in square brackets, D forms with d. Residues, ends and D or L forms follow the SMILES beside them. Gly(N-(CH2)3-guanidino) = N=C(N)NCCCNCC(=O)O; X1 = N=C(CCl)NCCCN(CC(=O)[*:2])[*:1]; Gly(N-CH2CH2OH) = O=C(O)CNCCO; Nleu = CC(C)CNCC(=O)O; Nlys = NCCCCNCC(=O)O; Sar = CNCC(=O)O

How the values were obtained:
PRMT1 [1] = target: T1, PRMT1 (Homo sapiens, UniProt Q99873); experiment: IC50 assay, MTase-Glo Methyltransferase assay; format: biochemical
T1 construct: made in house
Method: The efficacy of the peptoid inhibitors was probed using the MTase-Glo Methyltransferase assay kit. Various concentrations (0-1000 μM) of peptoid was incubated in assay buffer (20 mM Tris-HCl pH 8.0, 50 mM NaCl, 1 mM EDTA, 3 mM MgCl2, 0.1 mg/ml BSA, 1 mM DTT) at 37° C. for 10 min. Afterward, the inhibitor was allowed to interact with 200 nM PRMT1 for 15 min at 37° C. The reaction was catalyzed with 225 μM of AcH4-21 (a PRMT1 peptide substrate), continued for 15 min at 37° C., was quenched with the addition of 0.5% TFA (0.1% final concentration, 10 min, r.t.), followed by the addition of MTase-Glo Reagent to a final concentration of 1×. After 30-min incubation at r.t., MTase-Glo Detection Solution was added and incubated for 30 min at r.t. Luminescence signal was converted to product concentration using SAH standards (0-5 μM), following the above assay. Immediately afterwards, the luminescence signal was read with a BioTek Synergy 2 Multi-Mode Microplate Reader. IC50 values were determined by fitting the data to equation (2) using GraFit version 7.03. Fractional activity of PRMT=1/(1+([I]/IC50)) (2) where [I] is the inhibitor concentration and IC50 is the concentration of inhibitor resulting in 50% PRMT activity.
The IC50 value for the peptoid inhibitors were measured using the MTase-Glo Methyltransferase assay kit (Promega). The peptoid was incubated in assay buffer (20 mM Tris-HCl pH 8.0, 50 mM NaCl, 1 mM EDTA, 3 mM MgCl2, 0.1 mg/mL BSA, 1 mM DTT) and substrate (0-1000 μM) at either 37° C. (PRMT1) or 25° C. (PRMT5). After a pre-incubation of 10 minutes, 200 nM PRMT1 or PRMT5 was added to the assay before adding in the substrate, AcH4-21, at 225 μM. The reaction proceeded for 15 minutes before being quenched with 0.5% TFA (0.1% final concentration), vortexed, and incubated for an additional 10 minutes. To detect product formation, the MTase-Glo Reagent was added for 30 minutes at r.t., followed by addition of the MTase-Glo Detection solution for an additional 30 minutes. Finally, the luminescence signal was measured using a BioTek Synergy 2 Multi-Mode Microplate Reader. The values were converted to product concentration using a standard curve of S-adenosylhomocysteine (SAH; 0-5 μM). The IC50 values were determined using equation 1 and fit to a curve using GraFit 7.03. Fractional activity of PRMT=1/(1+([I]/IC50)) (2) IC50 is the concentration of inhibitor resulting in 50% PRMT activity and [I] is the inhibitor concentration. Cell Culture and Conditions

PRMT1 [2] = target: T1, PRMT1; experiment: Km assay, MTase-Glo Methyltransferase assay (peptoid as substrate); format: biochemical; settings: peptoid 0-1000 μM, 200 nM PRMT1
Method: The kinetics of each peptoid were determined using the MTase-Glo Methyltransferase assay kit to monitor the conversion of S-adenosylmethionine (SAM) to S-adenosylhomocysteine (SAH). Briefly, various concentrations (0-1000 μM) of the peptoid in assay buffer (20 mM Tris-HCl pH 8.0, 50 mM NaCl, 1 mM EDTA, 3 mM MgCl2, 0.1 mg/ml BSA, 1 mM DTT) were incubated at 37° C. After 10 min, 200 nM PRMT1 was added to initiate the reaction. The reaction proceeded for 10 min at 37° C. until quenched with the addition of 0.5% TFA (0.1% final concentration, 10 min, r.t.) followed by the addition of MTase-Glo Reagent to a final concentration of 1×. After 30 min incubating at r.t, MTase-Glo Detection Solution was added and incubated for 30 min at r.t. Immediately afterwards, the luminescence signal was read with a BioTek Synergy 2 Multi-Mode Microplate Reader. Luminescence signal was converted to product concentration using SAH standards (0-5 μM), following the above assay. The initial rates were fitted into equation (1) using GraFit version 7.03. V=Vmax[S]/(Km+[S]) (1) IC50 Assay

[3] = test system: HepaRG immortalized, terminally differentiated liver cells; settings: non-tumorigenic HepaRG; for growth over time course: 72 hour time course
Method: (§1) MDA-MB-468 breast carcinoma cells (ATCC; HTB132), HCT116+/+p53 colon carcinoma cells were grown in DMEM supplemented in 5% FBS. HepaRG terminally differentiated liver cell line (Thermoscientific; HPRGC10) and HepaRG-Fucci cells were grown in Williams media supplemented with Glutamax and 5% FBS and normal Human Mammary Epithelial Cells (HMEC) (ATCC; PCS-600-010) were grown in Mammary epithelial basal medium (ATCC; PCS-600-030) supplemented with mammary epithelial cell growth kit (ATCC; PCS-600-040). Cells were recovered with 0.25% trypsin-EDTA, plated on cell culture treated plates and/or coverslips according to the experimental design and incubated overnight in 37° C. humidified CO2 incubator kept at 5% CO2 (800WJ; Thermoscientific). Cells were washed twice with sterile PBS before switching to serum free treatment media along with varying concentrations of the PRMT inhibitor compound (0-40 μM).
(§2) Cell viability and growth was assessed using the crystal violet assay as described by Oliver et al., J Cell Sci, 1989). […] Cells were fixed at each time point with 100% methanol and stained with 1% crystal violet in 0.01M borate buffer (pH 8.9). Absorbance of dye eluted in 1:1 (v/v) ethanol: 0.01M HCl was checked at 650 nm by microplate reader. The cell growth rate was calculated by the following formula: Cell growth rate (%)=(A650 at n hour/A650 0 h). Each condition was tested in triplicate and repeated three independent times.

[4] = test system: Human Mammary Epithelial Cells (HMEC); settings: normal HMEC, 72 hour time course
Method: as §1, §2

[5] = test system: caspase-3 activity in HepaRG cells; settings: only at the highest dose
Method: Caspase-3 activity assay was performed on extracted protein lysates using colorimetric caspase-3 activity assay (K106; Biovision) as per manufacturer's protocol. Briefly, 50 μL of extracted protein was plated in a UV compatible 96 well plate. DEVD-pNA substrate in prepared 1× buffer was added to each sample. The plate was shaken for 10 minutes and incubated at 37° C. in Biorad plate reader and read at 405 nm every 10 minutes for 2 hours.

[6] = histone H4 peptoids, SAM 40 μM, substrate AcH4-21 225 μM, read-out: IC50
[7] = listed as unacetylated H4-16 warhead chloracetamidine peptoid

T1 sequence (Q99873 1-353 isoform Q99873-3, species assumed): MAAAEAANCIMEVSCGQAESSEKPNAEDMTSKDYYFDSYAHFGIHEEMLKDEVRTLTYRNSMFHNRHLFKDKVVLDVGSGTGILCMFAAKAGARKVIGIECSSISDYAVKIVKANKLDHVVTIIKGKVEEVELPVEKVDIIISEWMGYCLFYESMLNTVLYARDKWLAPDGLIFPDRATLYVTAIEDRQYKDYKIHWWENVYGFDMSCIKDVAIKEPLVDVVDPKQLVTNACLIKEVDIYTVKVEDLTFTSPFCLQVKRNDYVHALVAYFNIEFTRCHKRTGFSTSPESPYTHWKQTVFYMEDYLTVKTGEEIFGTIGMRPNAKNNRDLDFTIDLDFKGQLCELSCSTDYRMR

N=C(N)NCCCN(CC(=O)NCC(=O)N(CCCCN)CC(=O)NCC(=O)NCC(=O)N(CCCCN)CC(N)=O)C(=O)CNC(=O)CNCCO [Peptoid H4-8] (H-[Gly(N-CH2CH2OH)]G[Gly(N-(CH2)3-guanidino)]G[Nlys]GG[Nlys]-NH2)
IC50 (PRMT1 [1]; [6]): > 1000 µM
inhibition of PRMT1 (PRMT1 [1]; up to 1000 μM): did not show any inhibition up to 1000 μM

CC(=O)N(CCO)CC(=O)NCC(=O)N(CCCNC(=N)N)CC(=O)NCC(=O)N(CCCCN)CC(=O)NCC(=O)NCC(=O)N(CCCCN)CC(=O)NCC(=O)N(CC(=O)NCC(=O)N(CCCCN)CC(=O)NCC(N)=O)CC(C)C [AcH4-13] (Ac-[Gly(N-CH2CH2OH)]G[Gly(N-(CH2)3-guanidino)]G[Nlys]GG[Nlys]G[Nleu]G[Nlys]G-NH2)
IC50 (PRMT1 [1]): > 1000 µM
modification / product turnover as PRMT1 substrate (PRMT1 [2]): low product turnover

CC(=O)N(CCO)CC(=O)NCC(=O)N(CCCNC(=N)N)CC(=O)NCC(=O)N(CCCCN)CC(=O)NCC(=O)NCC(=O)N(CCCCN)CC(=O)NCC(=O)N(CC(=O)NCC(=O)N(CCCCN)CC(=O)NCC(=O)NCC(=O)N(C)CC(=O)N(CCCCN)CC(N)=O)CC(C)C [AcH4-16 peptoid] (Ac-[Gly(N-CH2CH2OH)]G[Gly(N-(CH2)3-guanidino)]G[Nlys]GG[Nlys]G[Nleu]G[Nlys]GG[Sar][Nlys]-NH2)
IC50 (PRMT1 [1]): 916 ± 19.5 µM

CC(C)CN(CC(=O)NCC(=O)N(CCCCN)CC(=O)NCC(=O)NCC(=O)N(C)CC(=O)N(CCCCN)CC(N)=O)C(=O)CNC(=O)CN(CCCCN)C(=O)CNC(=O)CNC(=O)CN(CCCCN)C(=O)CNC(=O)CN(CCCNC(=N)CCl)C(=O)CNC(=O)CNCCO [Peptoid P2] (H-[Gly(N-CH2CH2OH)]G[X1]G[Nlys]GG[Nlys]G[Nleu]G[Nlys]GG[Sar][Nlys]-NH2)
cell viability ([3]; 0-40 μM, 48 hours): no prominent change
growth over time course [3]: no detectable effect in growth
growth over time course [3, 7]: No detectable effect in growth
growth over time course [4]: no detectable effect in growth
growth over time course [4, 7]: No detectable effect in growth
caspase-3 activity [5]: minimal activation of caspase-3
caspase-3 activity [5, 7]: Only minimal activation of caspase-3

CC(=O)N(CCO)CC(=O)NCC(=O)N(CCCNC(=N)N)CC(=O)NCC(=O)N(CCCCN)CC(=O)NCC(=O)NCC(=O)N(CCCCN)CC(N)=O [AcH4-8] (Ac-[Gly(N-CH2CH2OH)]G[Gly(N-(CH2)3-guanidino)]G[Nlys]GG[Nlys]-NH2)
IC50 (PRMT1 [1]; [6]): > 1000 µM
modification / product turnover as PRMT1 substrate (PRMT1 [2]): low product turnover
